# According to US20140147410A1, “MICROBICIDE COMBINATIONS CONTAINING SILVER” (priority 2011, published 2014):
# Tests used:
# Assay type in all cases: cell-based
# [1] = test system: Candida albicans ATCC#10203; assay: HRMIC synergy test, yeast; details: C. albicans, biocide alone
# Experimental: (§1) The combinations were evaluated for synergy by determining the synergy index (S.I.) of the combination. The Synergy index calculated is based on minimum inhibitory concentrations (MIC) of two biocides (A and B) alone and in combinations. The lower the S.I. value, the better the synergy. High Resolution Minimum Inhibitory Concentration (HRMIC) method was performed to determine the potential for synergy of the combinations. The tests organisms were gram negative bacteria (Pseudomonas aeruginosa), Gram positive bacteria (Staphylococcus aureus), yeast (Candida albicans) and mold (Aspergillus niger). Contact time for the bacteria was 24 and 48 hours, yeast was 48 and 72 hrs, 3 and 7 days for mold. The test was carried out in 96well microtiter plates. […] Ca/CA+Cb/CB=Synergy Index(“SI”) • CA=concentration of compound A in ppm, acting alone, which produced an end point (MIC of Compound A). • Ca=concentration of compound A in ppm, in the mixture, which produced an end point. • CB=concentration of compound B in ppm, acting alone, which produced an end point (MIC of Compound B). • Cb=concentration of compound B in ppm, in the mixture, which produced an end point. When the sum of Ca/CA and Cb/CB is greater than one, antagonism is indicated. […] [table] [table]
# [2] = test system: Staphylococcus aureus ATCC# 6538; assay: HRMIC synergy test, Gram positive bacteria; details: S. aureus, biocide alone
# Experimental: as §1
# [3] = test system: Aspergillus niger ATCC# 16404; assay: HRMIC synergy test, mold; details: A. niger, biocide alone
# Experimental: as §1
# [4] = test system: Pseudomonas aeruginosa ATCC # 15442; assay: HRMIC synergy test, gram negative bacteria; details: Ps. aeruginosa, contact time 24 hrs, biocide alone
# Experimental: as §1
smiles,measurement,setting,value
"Cc1ccc(S(=O)(=O)C(I)I)cc1 [DIMTS, diiodomethyl-p-tolylsulfone]",MIC alone (CA / CB),[1]; contact time 48 hrs,20 ppm AI
same,MIC alone (CA / CB),[1]; contact time 72 hrs,30 ppm AI
same,MIC alone (CA / CB),[2]; contact time 24 hrs,30 ppm AI
same,MIC alone (CA / CB),[2]; contact time 48 hrs,400 ppm AI
same,MIC alone (CA / CB),[3]; contact time 3rd day,0.3 ppm AI
same,MIC alone (CA / CB),[3]; contact time 7th day,0.5 ppm AI
same,MIC alone (CA / CB),[4],>1000 ppm AI
